Key:
[1] = Polarographic study of electrochemical reduction (electrochemical activity); format: physicochemical; settings: for number of electrons participating in the reduction: calculated with the Geirovsky-Ilkovich equation; for i, mkA (polarographic wave current) / −E1/2, V (half-wave potential vs SCE): 37° C., forward trace, average for the group; for i, mkA (polarographic wave current): 9·10^−4 M; for half-wave potential more positive on reverse stroke than on forward stroke: reverse stroke vs forward stroke
Procedure: The study was carried out on a general-purpose polarograph PU-1 with a two-coordinate recorder of the “LKD” type using a three-electrode thermostatically controlled polarographic cell and mercury dripping electrode (MDE) with forced separation of the drop and a dropping period of 0.5 second. A platinum wire was used as an auxiliary electrode and a saturated calomel electrode (SCE) was used as a control electrode.
2.0% solutions of sodium chloride having pH 7.0, 7.2, 7.4, 7.6 were used as a background; the pH values of the background solution were corrected by a solution of sodium hydroxide. The polarographic cell was filled with 5.0 ml of the background solution and for 5 minutes was purged with nitrogen for removing the dissolved oxygen. Then 0.5 ml of solution of the studied substance was added to the background solution, and the polarogram was recorded as a polarographic wave. The concentration of the compounds in the polarographic cell was 9·10^−4 M.
The pH was measured on the pH-meter with an accuracy of ±0.05 pH units. The polarographic measurements were carried out at a temperature of 37° C. The recording of polarograms of the investigated materials was effected under conditions of DC current at a scanning rate of the potential 10.0 mV/s with a active scanning stroke from a potential 0 to −0.5 V and sweep retrace from a −0.5 V to 0. The electric-current sensitivity was 5.0 mkA. The scale by the coordinate of the potentials was 50.0 mV/cm. The values of potentials of the half-wave E1/2 of the investigated materials are given with respect to the SCE potential.
The polarogram parameters such as a limiting current ilim and E1/2 were determined by the graphic method. The number of electrons participating in the reaction was calculated on the basis of the analysis of the polarographic wave using the Geirovsky-Ilkovich equation.

[2] = system: embyronic fibroblasts of mouse NIH-3T3; experiment: Endocellular pHi of fibroblasts by microspectrofluorimetry (FDA, BCECF-AM); format: cell-based; settings: for rise of pHi: fibroblasts in an attached spread state; for increase of pHi: 20 minutes
Procedure: The effect of the compounds according to the invention on the endocellular pH, embyronic fibroblasts of mouse NIH-3T3 supplied by the All-Russian Collection of Cellular Cultures of the Institute of Cytology of the Russian Academy of Sciences St. Petersburg was investigated. The cells were grown in the DMEM (Sigma) medium containing 2.2 g/l of sodium bicarbonate with addition of 80.0 mkg/ml of gentamicin and 10.0% embryonal veal serum at a temperature of 37° C. in an atmosphere containing 5.0% of carbon dioxide. For these experiments use was also made of a medium buffer with 5.0 mM of HEPES and 15.0 mM of sodium bicarbonate without serum or with addition of 5.0% serum. The cells were calculated with the help of a hemocytometer. A share of the dead cells was determined by colouring trypan blue.
The measurements of the endocellular pHi were carried out with the help of colorants FDA (Sigma) and BCECF-AM (Calbiochem) on a microspectrofluorimeter by a standard technique (Koshevoy Yu. V., Akatov V. S., Grobova M. E. Microspectrofluorimeter for measuring endocellular pH (micro pH)”. Devices and equipment for studies in the field of physical-and-chemical biology and biotechnology. Pushchino, 1990. P. 8-14).
The cells at a temperature of 37° C. were colored within 5 minutes with 5.0 mkM PDA that before the colouring was prepared from a 10.0 mM solution in acetone by dilution for 30 minutes in a phosphatic buffer to 0.1 mM or 2.0 mkM 1.0 mM solution BCECF-AM in DMSO.
The two-wave method of determining pHi was used based on the ratio intensities of fluorescence of the cells on two wavelengths (Akatov V. S. et all), “Endocellular pH and substrate dependence of proliferation of fibroblasts of Chinese hamster, Cytology, 1991, 33 (7), p. 86-94). The fluorescence was excited by light at λ=490 nm, the emission was recorded simultaneously with two photomultipliers on wavelengths λ=535 nm and λ=570 nm. The K-ratio of the fluorescence on two wavelengths was determined with a deduction of the background fluorescence of the medium near the investigated cells for 40-60 individual cells, which are then averaged taking into account the measurement error. A thermostatically controlled table was used that allowed measurements to be conducted at a temperature of 37° C. An account was taken for the photodynamic damage of the pigmented cells during-long-time continuous illumination by excited light. The readings were taken from a section of the preparation exposed to light for not more than 5 minutes.
The calibration curves for determining the absolute pHi values by magnitude K were constructed using the Thomas technique (Thomas J. A., Bushbaum R. N., Zimniak A. w Racker E. “Intracellular pH measurements in Ehrlich ascites tumor cells utilizing spectroscopic probe generated in situ”, Biochemistry, 1979, v. 18, p. 2210-2218), for which case the pigmented cells treated for 5-10 minutes with carboxyacidic nigericyn (Calbiochem) at a concentration of 5-10 mkg/ml was placed in a solution with a high content of potassium—130 mM KCl, 1.0 mM MgCl2, 20.0 mM of HEPES) and with pH values from 6.2 to 7.6. The K values were measured in the media with different pH assuming that pHi of the cells equals to the pH of the medium due to the action of nigericyn, which exchanges potassium ions for protons and at a high content of potassium in the medium counterbalances the pH of the medium and cells. Calibration curves were used based on the fluorescence of same medium with addition of 5.0 mkM of fluorescence or BCECF were used to the control the stability of the of the instrument readings.
The correctness of the technique was confirmed in the experiments on measurements of pH values of cells treated with protonofor monencine raising pH of the cells due to replacement of sodium ions by protons, and by determining the dependence of the change of pHi on the change of the pH of the medium. […]

[3] = medium with 10.0% blood serum, 0.02 mkg/ml, suspension
[4] = medium with 10.0% blood serum, 0.2 mkg/ml, suspension
[5] = medium with 10.0% blood serum, 2.0 mkg/ml, suspension
[6] = medium with 10.0% blood serum, 20.0 mkg/ml, suspension
[7] = medium without blood serum, 0.02 mkg/ml
[8] = medium without blood serum, 0.2 mkg/ml
[9] = medium without blood serum, 2.0 mkg/ml
[10] = medium without blood serum, 20.0 mkg/ml
[11] = medium without blood serum, 200 mkg/ml
[12] = medium without blood serum, 1000 mkg/ml

number of electrons participating in the reduction [1] | i, mkA (polarographic wave current) ([1]; pH 7.0) | −E1/2, V (half-wave potential vs SCE) ([1]; pH 7.0) | i, mkA (polarographic wave current) ([1]; pH 7.2) | −E1/2, V (half-wave potential vs SCE) ([1]; pH 7.2) | i, mkA (polarographic wave current) ([1]; pH 7.4) | −E1/2, V (half-wave potential vs SCE) ([1]; pH 7.4) | i, mkA (polarographic wave current) ([1]; pH 7.6) | −E1/2, V (half-wave potential vs SCE) ([1]; pH 7.6) | half-wave potential more positive on reverse stroke than on forward stroke [1] | Compound | rise of pHi ([2]; 2.0 mkg/ml) | rise of pHi ([2]; 20.0 mkg/ml) | increase of pHi [2, 3] | increase of pHi [2, 4] | increase of pHi [2, 5] | increase of pHi [2, 6] | increase of pHi [2, 7] | increase of pHi [2, 8] | increase of pHi [2, 9] | increase of pHi [2, 10] | also measured
3.5 | 0.30 ± 0.05 mkA | 0.08 ± 0.02 V | 0.26 ± 0.02 mkA | – | 0.30 ± 0.03 mkA | 0.085 ± 0.02 V | 0.30 ± 0.02 mkA | 0.09 ± 0.02 V | 27.0 mV | O=c1[nH][nH]c(=O)c2ncncc12.[Li] [Compound 35, lithium salt of pyrimido[4,5-d]-6H-pyridazine-5,8-dione] | 0.10 unit pHi | 0.07 unit pHi | do not initiate a change of pH | 0.1 unit pH | 0.12 unit pH | do not initiate a change of pH | no effect was found | no effect was found | 0.08 unit pHi | 0.08 unit pHi | increase of pHi [2, 11]: no effect was found; increase of pHi [2, 12]: no effect was found
3.5 | 0.30 ± 0.05 mkA | 0.08 ± 0.02 V | 0.26 ± 0.02 mkA | – | 0.30 ± 0.03 mkA | 0.085 ± 0.02 V | 0.30 ± 0.02 mkA | 0.09 ± 0.02 V | 27.0 mV | O=c1[nH]n([C@@H]2O[C@H](CO)[C@@H](O)[C@H]2O)c(=O)c2ncnc(O)c12.[Na] [Compound 33, sodium salt of 4-hydroxy-7-(β-D-ribofuranosile)pyrimido[4,5-d]-6H-pyridazine-5,8-dione] | – | – | – | – | – | – | – | – | – | – | –
3.72 | 0.32 ± 0.03 mkA | 0.16 ± 0.02 V | 0.33 ± 0.04 mkA | 0.19 ± 0.02 V | 0.34 ± 0.03 mkA | 0.175 ± 0.01 V | 0.34 ± 0.02 mkA | 0.16 ± 0.015 V | 20.0 mV | potassium salt of 3-bromine-pyrazine[2,3-Cl]-6H-pyridazine-5,8-dione [Compound 27] | – | – | – | – | – | – | – | – | – | – | –

The next lines start with the compound.

Compound | number of electrons participating in the reduction [1] | i, mkA (polarographic wave current) ([1]; pH 7.0) | −E1/2, V (half-wave potential vs SCE) ([1]; pH 7.0) | i, mkA (polarographic wave current) ([1]; pH 7.2) | −E1/2, V (half-wave potential vs SCE) ([1]; pH 7.2) | i, mkA (polarographic wave current) ([1]; pH 7.4) | −E1/2, V (half-wave potential vs SCE) ([1]; pH 7.4) | i, mkA (polarographic wave current) ([1]; pH 7.6) | −E1/2, V (half-wave potential vs SCE) ([1]; pH 7.6) | half-wave potential more positive on reverse stroke than on forward stroke [1] | rise of pHi ([2]; 2.0 mkg/ml) | rise of pHi ([2]; 20.0 mkg/ml) | increase of pHi [2, 3] | increase of pHi [2, 4] | increase of pHi [2, 5] | increase of pHi [2, 6] | increase of pHi [2, 7] | increase of pHi [2, 8] | increase of pHi [2, 9] | increase of pHi [2, 10] | also measured
O=c1[nH][nH]c(=O)c2ncccc12.[Na] [Compound 7, sodium salt of pyrido[2,3-d]-6H-pyridazine-5,8-dione] | 3.72 | 0.26 ± 0.04 mkA | 0.11 ± 0.02 V | 0.31 ± 0.02 mkA | 0.11 ± 0.03 V | 0.27 ± 0.03 mkA | 0.105 ± 0.01 V | 0.30 ± 0.01 mkA | 0.105 ± 0.02 V | 25.0 mV | 0.10 unit pHi | 0.07 unit pHi | do not initiate a change of pH | 0.1 unit pH | 0.12 unit pH | do not initiate a change of pH | no effect was found | no effect was found | 0.08 unit pHi | 0.08 unit pHi | increase of pHi [2, 11]: no effect was found; increase of pHi [2, 12]: no effect was found
O=C([O-])c1ccc2c(=O)[nH][nH]c(=O)c2c1.O=C([O-])c1ccc2c(=O)[nH][nH]c(=O)c2c1.[Na+].[Na+] [Compound 18, disodium salt of 6-carboxy-benzo[d]-3H-pyridazine-1,4-dione] | 4.09 | 0.23 ± 0.03 mkA | 0.092 ± 0.02 V | 0.30 ± 0.01 mkA | 0.09 ± 0.01 V | 0.29 ± 0.02 mkA | 0.092 ± 0.02 V | 0.31 ± 0.02 mkA | 0.09 ± 0.01 V | 30.0 mV | 0.10 unit pHi | 0.07 unit pHi | do not initiate a change of pH | 0.1 unit pH | 0.12 unit pH | do not initiate a change of pH | no effect was found | no effect was found | 0.08 unit pHi | 0.08 unit pHi | increase of pHi [2, 11]: no effect was found; increase of pHi [2, 12]: no effect was found
disodium salt of 3-Kap ? OKC ? -7-(β-D-ribofuranosile)pyrido[2,3-d]-6H-pyridazine-5,8-dione [Compound 5] | 3.72 | 0.26 ± 0.04 mkA | 0.11 ± 0.02 V | 0.31 ± 0.02 mkA | 0.11 ± 0.03 V | 0.27 ± 0.03 mkA | 0.105 ± 0.01 V | 0.30 ± 0.01 mkA | 0.105 ± 0.02 V | 25.0 mV | – | – | – | – | – | – | – | – | – | – | –

From patent US20070166547A1, “Use of a layer consisting of hydrophobic linear, or two-dimensional polycyclic aromatics as a barrier layer or an encapsulation and electric components constructed with a layer of this type and comprising organic polymers” (priority 2003, published 2007)
